Data set [1] has as its system Mycosphaerella arachidis (Cercospora arachidicola). As to the kind of experiment: Mycosphaerella arachidis (Cercospora arachidicola)/Liquid Culture (Early Leaf Spot). The format is cell-based. To be noted: 20 ppm; liquid culture, growth inhibition photometrically 4-5 days after application; compared to untreated control. As for the experimental part:
Mycosphaerella arachidis (Cercospora arachidicola)/Liquid Culture (Early Leaf Spot)
(§1) Conidia of the fungus from cryogenic storage are directly mixed into nutrient broth (PDB potato dextrose broth). After placing a (DMSO) solution of test compound into a microtiter plate (96-well format), the nutrient broth containing the fungal spores is added. The test plates are incubated at 24° C. and the inhibition of growth is determined photometrically 4-5 days after application.

Data set [2] concerns Mycosphaerella graminicola (Septoria tritici). As to the kind of experiment: microbe, parasite or virus in culture. In kind it is cell-based. To be noted: Zymoseptoria tritici, read-out: control of Mycosphaerella graminicola.
Data set [3] deals with Fusarium culmorum. Put plainly: microbe, parasite or virus in culture. In kind it is cell-based. To be noted: read-out: control of Fusarium culmorum.
In data set [4] the test system is Sclerotinia sclerotiorum. As to the kind of experiment: Sclerotinia sclerotiorum/Liquid Culture (Cottony Rot). In kind it is cell-based. To be noted: liquid culture, growth inhibition photometrically 3-4 days after application, compared to untreated control. As for the experimental part: Sclerotinia sclerotiorum/Liquid Culture (Cottony Rot)
Mycelia fragments of a newly grown liquid culture of the fungus are directly mixed into nutrient broth (Vogels broth). After placing a (DMSO) solution of test compound into a microtiter plate (96-well format) the nutrient broth containing the fungal material is added. The test plates are incubated at 24° C. and the inhibition of growth is determined photometrically 3-4 days after application.

Data set [5] has as its system Gaeumannomyces graminis. Put plainly: Gaeumannomyces Graminis/Liquid Culture (Take-all of Cereals). The format is cell-based. To be noted: liquid culture, growth inhibition photometrically 4-5 days after application, compared to untreated control. As to the method: Gaeumannomyces Graminis/Liquid Culture (Take-all of Cereals)
Mycelial fragments of the fungus from cryogenic storage were directly mixed into nutrient broth (PDB potato dextrose broth). After placing a (DMSO) solution of test compound into a microtiter plate (96-well format), the nutrient broth containing the fungal spores is added. The test plates are incubated at 24° C. and the inhibition of growth is determined photometrically 4-5 days after application.

In data set [6] the test system is Glomerella lagenarium (Colletotrichum lagenarium). As to the kind of experiment: Glomerella Lagenarium (Colletotrichum Lagenarium)/Liquid Culture (Anthracnose). The format is cell-based. To be noted: Colletotrichum orbiculare, liquid culture, growth inhibition photometrically 3-4 days after application, compared to untreated control. As for the experimental part:
Glomerella Lagenarium (Colletotrichum Lagenarium)/Liquid Culture (Anthracnose)
Conidia of the fungus from cryogenic storage are directly mixed into nutrient broth (PDB potato dextrose broth). After placing a (DMSO) solution of test compound into a microtiter plate (96-well format), the nutrient broth containing the fungal spores is added. The test plates are incubated at 24° C. and the inhibition of growth is measured photometrically 3-4 days after application.

For data set [7], the system named is Botryotinia fuckeliana (Botrytis cinerea). Put plainly: Botryotinia fuckeliana (Botrytis cinerea)/Liquid Culture (Gray Mould). In kind it is cell-based. To be noted: liquid culture, growth inhibition photometrically 3-4 days after application, compared to untreated control. As to the method: Biological Examples Botryotinia fuckeliana (Botrytis cinerea)/Liquid Culture (Gray Mould)
Conidia of the fungus from cryogenic storage are directly mixed into nutrient broth (Vogels broth). After placing a (DMSO) solution of test compound into a microtiter plate (96-well format), the nutrient broth containing the fungal spores is added. The test plates are incubated at 24° C. and the inhibition of growth is determined photometrically 3-4 days after application.

The test system of data set [8] is Monographella nivalis (Microdochium nivale). As to the kind of experiment: Monographella Nivalis (Microdochium Nivale)/Liquid Culture (Foot Rot Cereals). The format is cell-based. To be noted: liquid culture, growth inhibition photometrically 4-5 days after application, compared to untreated control. As for the experimental part:
Monographella Nivalis (Microdochium Nivale)/Liquid Culture (Foot Rot Cereals)
as §1

The subject of data set [9] is Magnaporthe grisea (Pyricularia oryzae). As to the kind of experiment: microbe, parasite or virus in culture. The format is cell-based. To be noted: read-out: control of Magnaporthe grisea.

By melting point is commonly meant the temperature of the solid-liquid transition. `Cn1nc2ccccc2c1C1=NC(C)(C)C(C)(C)c2c(F)cccc21` [Compound E-1, 5-fluoro-3,3,4,4-tetramethyl-1-(2-methylindazol-3-yl)isoquinoline] registered a melting point of 113 to 115 °C. In addition, in data set [1], the “control of Mycosphaerella arachidis” value is listed as “at least 80%”. Further, the inhibition of growth at 20 ppm in data set [2] is at least 80%. The inhibition of growth at 20 ppm in [3] was at least 80%. This compound displayed an inhibition of growth at 20 ppm in data set [4] of at least 80%. In [5], this compound gave an inhibition of growth at 20 ppm of at least 80%. Also, the inhibition of growth at 20 ppm in data set [6] was at least 80%. The compound also yielded an inhibition of growth at 20 ppm in data set [7] of at least 80%. The compound further came in with an inhibition of growth at 20 ppm in data set [8] of at least 80%. In addition, the inhibition of growth at 20 ppm in [9] was at least 80%.
`Cc1ccc2c(C3=NC(C)(C)C(C)(C)c4c(F)cccc43)n(C)nc2c1Cl` [Compound E-27, 1-(7-chloro-2,6-dimethyl-indazol-3-yl)-5-fluoro-3,3,4,4-tetramethyl-isoquinoline]: the melting point was in the range of 113 to 116 °C. The inhibition of growth at 20 ppm in data set [2] was at least 80%. Further, the inhibition of growth at 20 ppm in [3] was at least 80%. Besides, in data set [4], the inhibition of growth at 20 ppm was at least 80%. For the same compound, in [5], the inhibition of growth at 20 ppm is at least 80%. For the same compound, the inhibition of growth at 20 ppm in data set [6] is at least 80%. The compound further gave an inhibition of growth at 20 ppm in [7] of at least 80%. Further, the inhibition of growth at 20 ppm in data set [8] was at least 80%. Further, in data set [9], the inhibition of growth at 20 ppm is at least 80%.
`Cc1ccc2c(C3=NC(C)(C)C(C)(C)c4c(F)cccc43)n(C)nc2c1` [Compound E-28, 1-(2,6-dimethylindazol-3-yl)-5-fluoro-3,3,4,4-tetramethyl-isoquinoline] came in with a melting point of 137 to 138 °C. Besides, the inhibition of growth at 20 ppm in [2] is at least 80%. In addition, in data set [3], the inhibition of growth at 20 ppm was at least 80%. For the same compound, the inhibition of growth at 20 ppm in [4] was at least 80%. The compound also had an inhibition of growth at 20 ppm in [5] of at least 80%. This compound also gave an inhibition of growth at 20 ppm in data set [6] of at least 80%. The inhibition of growth at 20 ppm in [7] is at least 80%. For the same compound, the inhibition of growth at 20 ppm in data set [8] was at least 80%. Moreover, the inhibition of growth at 20 ppm in data set [9] was at least 80%.

The record behind these values is US10329272B2 (priority 2015, dated 2019).
